Assay results as given in paper PMC8842224 (Journal of Medicinal Chemistry, 2022).
Where two headings read alike, the source gives them in different places.

Key:
human A1AR = target: T1, human A1AR (Homo sapiens, UniProt P30542); settings: for Exp absolute binding affinity (ΔGbind): experimental, A1AR
T1 sequence (P30542 1-326): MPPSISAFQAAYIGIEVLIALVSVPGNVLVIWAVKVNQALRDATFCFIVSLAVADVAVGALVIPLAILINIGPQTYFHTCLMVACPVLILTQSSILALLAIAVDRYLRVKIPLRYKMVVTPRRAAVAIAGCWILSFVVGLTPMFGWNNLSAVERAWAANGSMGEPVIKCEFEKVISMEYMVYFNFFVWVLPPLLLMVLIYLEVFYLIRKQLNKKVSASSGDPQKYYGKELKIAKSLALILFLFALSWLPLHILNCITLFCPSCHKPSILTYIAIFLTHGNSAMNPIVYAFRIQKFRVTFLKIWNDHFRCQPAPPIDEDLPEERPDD

human A2AAR = human A2AAR (Homo sapiens, UniProt P29274)
human A2BAR = target: T2, human A2BAR (Homo sapiens, UniProt P29275); settings: read-out: hA2B Ki; displacement of specific [3H]DPCPX binding, human HEK-293 cells, ± SEM, n = 3
T2 sequence (P29275 1-332): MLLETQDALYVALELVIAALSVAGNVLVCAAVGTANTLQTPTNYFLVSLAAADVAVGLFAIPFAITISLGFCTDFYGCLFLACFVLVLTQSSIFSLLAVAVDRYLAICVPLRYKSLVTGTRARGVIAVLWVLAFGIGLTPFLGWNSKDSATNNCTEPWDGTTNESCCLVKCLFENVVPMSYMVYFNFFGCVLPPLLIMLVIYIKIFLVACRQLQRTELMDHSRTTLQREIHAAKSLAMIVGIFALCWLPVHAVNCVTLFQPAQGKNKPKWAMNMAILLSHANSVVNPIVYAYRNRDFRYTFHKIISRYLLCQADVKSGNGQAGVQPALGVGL

[1] = read-out: hA1 Ki, displacement of specific [3H]DPCPX binding, human CHO cells, ± SEM, n = 3
[2] = read-out: hA2A Ki, displacement of specific [3H]ZM241385 binding, human HeLa cells, ± SEM, n = 3
[3] = read-out: ki_a1, supplementary csv, unit inferred
[4] = read-out: ki_a2a, supplementary csv, unit inferred

Sequence of human A2AAR (P29274 whole entry): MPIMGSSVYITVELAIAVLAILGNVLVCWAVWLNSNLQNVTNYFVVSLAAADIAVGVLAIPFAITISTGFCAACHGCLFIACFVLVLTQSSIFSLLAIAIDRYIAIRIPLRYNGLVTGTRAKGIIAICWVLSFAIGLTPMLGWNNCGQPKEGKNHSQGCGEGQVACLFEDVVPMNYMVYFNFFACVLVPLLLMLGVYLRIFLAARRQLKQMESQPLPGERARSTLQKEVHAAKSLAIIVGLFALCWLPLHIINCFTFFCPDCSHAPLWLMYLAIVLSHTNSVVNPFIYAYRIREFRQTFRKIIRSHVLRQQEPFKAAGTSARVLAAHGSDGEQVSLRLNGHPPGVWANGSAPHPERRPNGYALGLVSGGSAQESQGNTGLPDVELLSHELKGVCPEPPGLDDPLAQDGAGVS

SMILES | Ki (human A1AR; [1]) [nM] | Ki (human A2AAR; [2]) [nM] | also measured
CCNc1nc(-c2ccccc2)c(C#N)c(-c2ccccc2)n1 [19b] | 5.82 ± 1.16 | 357 ± 21 | 
N#Cc1c(-c2ccccc2)nc(Nc2ccccc2)nc1-c1ccco1 [19au] | 33.7 ± 7.3 | 2.15 ± 0.11 | Ki (human A2BAR): 14.7 ± 4.9 nM
N#Cc1c(-c2ccccc2)nc(N)nc1-c1ccc2c(c1)OCO2 [18u] |  | 10.2 ± 1.09 | Ki (human A2BAR): 43.3 ± 4.2 nM
N#Cc1c(-c2ccccc2)nc(Nc2ccccc2)nc1-c1ccc2c(c1)OCO2 [19aq] | 11.4 ± 3.7 | 28 ± 9.6 | Ki (human A2BAR): 188 ± 23 nM
N#Cc1c(-c2ccccc2)nc(N)nc1-c1ccncc1 [18ab] | 216 ± 23 | 676 ± 27 | Ki (human A1AR; [3]): 216 nM; Ki (human A2AAR; [4]): 677 nM
CCNc1nc(-c2ccccc2)c(C#N)c(-c2cc(Cl)cc(Cl)c2)n1 [19ak] | 135 ± 20 |  | Ki (human A1AR; [3]): 136 nM
N#Cc1c(-c2ccccc2)nc(N)nc1-c1ccc(O)cc1 [18m] | 4.14 ± 0.55 | 26.5 ± 1.6 | 
N#Cc1c(-c2ccccc2)nc(N)nc1-c1cccs1 [18y] | 17.3 ± 4.4 | 24.9 ± 4.6 | Ki (human A2BAR): 40.6 ± 3.7 nM
COc1cccc(-c2nc(Nc3ccccc3)nc(-c3ccccc3)c2C#N)c1 [19r] | 95.5 ± 11.7 | 133 ± 11 | 
N#Cc1c(-c2ccccc2)nc(Nc2ccccc2)nc1-c1ccc(F)cc1 [19w] | 36.3 ± 4.1 |  | Ki (human A2BAR): 51.7 ± 3.1 nM
CNc1nc(-c2ccccc2)c(C#N)c(-c2cccc(O)c2)n1 [19o] | 2.48 ± 0.71 | 105 ± 8 | 
N#Cc1c(-c2ccccc2)nc(Nc2ccccc2)nc1-c1ccsc1 [19ba] |  | 102 ± 27 | 
N#Cc1cccc(-c2nc(N)nc(-c3ccccc3)c2C#N)c1 [18i] | 6.49 ± 1.14 | 84.1 ± 11.7 | 
COc1ccc(-c2nc(N)nc(-c3ccc(OC)cc3)c2C#N)cc1 [18al] | 74.3 ± 3.4 |  | 
N#Cc1c(-c2ccccc2)nc(N)nc1-c1ccc(F)cc1F [18o] | 4 ± 1.82 | 15.5 ± 2.21 | 
COc1cc(-c2nc(N)nc(-c3ccccc3)c2C#N)cc(OC)c1OC [18v] | 2.58 ± 0.05 | 0.95 ± 0.07 | 
COc1ccc(-c2nc(Nc3ccccc3)nc(-c3ccccc3)c2C#N)cc1 [19ac] |  | 51.4 ± 3.7 | Ki (human A2BAR): 186 ± 15 nM
CNc1nc(-c2ccccc2)c(C#N)c(-c2ccncc2)n1 [19bb] | 56.9 ± 6.7 |  | Exp relative binding affinity (ΔΔGbind) (human A1AR; Lig 2 relative to Lig 1 = 19a): 1.08 kcal/mol; Exp absolute binding affinity (ΔGbind) (human A1AR): -9.88 kcal/mol
CNc1nc(-c2ccccc2)c(C#N)c(-c2ccco2)n1 [19at] | 6.66 ± 2.4 | 401 ± 25 | Exp relative binding affinity (ΔΔGbind) (human A1AR; Lig 2 relative to Lig 1 = 19a): -0.19 kcal/mol; Exp relative binding affinity (ΔΔGbind) (human A1AR; Lig 2 relative to Lig 1 = 19ax): -4.33 kcal/mol; Exp absolute binding affinity (ΔGbind) (human A1AR): -11.15 kcal/mol; Ki (human A2AAR; [4]): 402 nM
CNc1nc(-c2ccccc2)c(C#N)c(-c2ccccc2)n1 [19a] | 9.14 ± 2.21 | 711 ± 43 | Exp relative binding affinity (ΔΔGbind) (human A1AR; Lig 2 relative to Lig 1 = 19ad): -0.66 kcal/mol; Exp absolute binding affinity (ΔGbind) (human A1AR): -10.96 kcal/mol
COc1cc(-c2nc(Nc3ccccc3)nc(-c3ccccc3)c2C#N)cc(OC)c1OC [19as] | 76.5 ± 9.1 | 15.8 ± 3.7 | 
COc1cc(OC)cc(-c2nc(Nc3ccccc3)nc(-c3ccccc3)c2C#N)c1 [19an] |  | 17.3 ± 1.9 | Ki (human A2BAR): 64 ± 9.6 nM
N#Cc1c(-c2ccccc2)nc(Nc2ccccc2)nc1-c1cccc(Cl)c1 [19n] |  | 46.3 ± 2.5 | 
CNc1nc(-c2ccccc2)c(C#N)c(-c2ccc(OC)cc2)n1 [19ab] | 57.5 ± 2.7 |  | Exp absolute binding affinity (ΔGbind) (human A1AR): -9.87 kcal/mol
CCNc1nc(-c2ccccc2)c(C#N)c(-c2cccc(Cl)c2)n1 [19m] | 5.1 ± 1.8 | 295 ± 27 | 
CNc1nc(-c2ccccc2)c(C#N)c(-c2ccoc2)n1 [19ax] |  |  | Exp absolute binding affinity (ΔGbind) (human A1AR): -6.82 kcal/mol
N#Cc1c(-c2ccccc2)nc(Nc2ccccc2)nc1-c1cccnc1 [19bf] |  | 27.1 ± 5.7 | Ki (human A2BAR): 29.4 ± 4 nM

SMILES | Ki (human A1AR; [1]) [nM] | Ki (human A2AAR; [2]) [nM] | also measured
N#Cc1c(-c2ccccc2)nc(Nc2ccccc2)nc1-c1ccoc1 [19ay] |  | 368 | 
CNc1nc(-c2ccccc2)c(C#N)c(-c2cc(OC)c(OC)c(OC)c2)n1 [19ar] | 11.7 ± 3.1 | 3.63 ± 0.88 | 
N#Cc1c(-c2ccccc2)nc(N)nc1-c1ccccc1F [18b] | 6.44 ± 1.25 | 17.6 ± 2.8 | 
N#Cc1c(-c2ccccc2)nc(N)nc1-c1cccnc1 [18ac] | 19.6 ± 1.47 | 36.4 ± 5.7 | 
Cc1ccc(-c2nc(N)nc(-c3ccccc3)c2C#N)cc1 [18n] | 5.38 ± 1.36 | 8.93 ± 0.12 | 
Cc1ccc(-c2nc(Nc3ccccc3)nc(-c3ccccc3)c2C#N)cc1 [19ae] | 37.9 ± 5.7 | 157 ± 16 | Ki (human A2AAR; [4]): 158 nM
N#Cc1c(-c2ccccc2)nc(Nc2ccccc2)nc1-c1ccccc1 [19c] | 45.6 ± 6.7 | 55.1 ± 4.3 | 
N#Cc1c(-c2ccccc2)nc(N)nc1-c1ccc(Br)cc1 [18k] | 9.19 ± 2.81 | 21.9 ± 5 | 
CNc1nc(-c2ccccc2)c(C#N)c(-c2cccc(OC)c2)n1 [19q] | 13.2 ± 4.1 | 82.6 ± 4.9 | 
N#Cc1c(-c2ccccc2)nc(N)nc1-c1ccc2ccccc2c1 [18af] | 8.27 ± 2.1 | 5.78 ± 1.16 | 
N#Cc1c(-c2ccc(F)cc2)nc(N)nc1-c1ccc2c(c1)OCO2 [18ak] | 12.5 ± 2.3 | 61 ± 4.9 | 
CNc1nc(-c2ccccc2)c(C#N)c(-c2cccc(F)c2)n1 [19j] | 28.5 ± 2.7 |  | Exp relative binding affinity (ΔΔGbind) (human A1AR; Lig 2 relative to Lig 1 = 19a): 0.67 kcal/mol; Exp relative binding affinity (ΔΔGbind) (human A1AR; Lig 2 relative to Lig 1 = 19s): 1.34 kcal/mol; Exp relative binding affinity (ΔΔGbind) (human A1AR; Lig 2 relative to Lig 1 = 19v): 0.12 kcal/mol; Exp absolute binding affinity (ΔGbind) (human A1AR): -10.29 kcal/mol; Ki (human A2BAR): 358 ± 27 nM
N#Cc1c(-c2ccccc2)nc(Nc2ccccc2)nc1-c1cccs1 [19aw] | 42.3 ± 4.6 | 330 ± 27 | 
N#Cc1c(-c2ccccc2)nc(N)nc1-c1ccc(F)cc1 [18j] | 4.19 ± 1.16 | 16.3 ± 2.9 | 
N#Cc1c(-c2ccccc2)nc(N)nc1-c1ccsc1 [18aa] | 5.25 ± 2.16 | 20.6 ± 2.7 | 
N#Cc1c(-c2ccccc2)nc(N)nc1-c1cc(Cl)cc(Cl)c1 [18s] | 15.9 ± 2.11 | 95.4 ± 16.5 | 
COc1ccccc1-c1nc(N)nc(-c2ccccc2)c1C#N [18d] | 13.1 ± 3.2 | 17.7 ± 2.1 | 
CNc1nc(-c2ccccc2)c(C#N)c(-c2ccc(C)cc2)n1 [19ad] | 28 ± 9.3 |  | Exp absolute binding affinity (ΔGbind) (human A1AR): -10.30 kcal/mol; Ki (human A2BAR): 474 ± 32 nM
N#Cc1c(-c2ccccc2)nc(N)nc1-c1ccoc1 [18z] | 18.7 ± 3.4 | 52.1 ± 5.1 | 
N#Cc1c(-c2ccccc2)nc(N)nc1-c1ccc(-c2ccccc2)cc1 [18ag] | 6500 ± 451 |  | 
N#Cc1c(-c2ccccc2)nc(N)nc1-c1ccccc1 [18a] |  | 18.6 ± 3.4 | 
COc1ccc(-c2nc(N)nc(-c3ccccc3)c2C#N)cc1 [18l] | 7.16 ± 2.03 | 46 ± 3.2 | 
CNc1nc(-c2ccccc2)c(C#N)c(-c2ccccc2F)n1 [19d] | 29.5 ± 2.3 |  | Exp relative binding affinity (ΔΔGbind) (human A1AR; Lig 2 relative to Lig 1 = 19a): 0.69 kcal/mol; Exp absolute binding affinity (ΔGbind) (human A1AR): -10.27 kcal/mol; Ki (human A2BAR): 47.8 ± 3.8 nM
N#Cc1c(-c2cccc(Cl)c2)nc(N)nc1-c1cc(Cl)cc(Cl)c1 [18ai] | 7.81 ± 1.43 | 190 ± 22 | 
COc1ccc(-c2nc(N)nc(-c3ccccc3)c2C#N)c(OC)c1 [18q] | 3.98 ± 0.74 | 10.2 ± 1.83 | 
N#Cc1cccc(-c2nc(Nc3ccccc3)nc(-c3ccccc3)c2C#N)c1 [19u] | 18.2 ± 3.1 |  | Ki (human A2BAR): 16.4 ± 2.2 nM
